# Patent US8338414B2, “Immunosuppressive agent and anti-tumor agent comprising heterocyclic compound as active ingredient” (Zenyaku Kogyo KabushikiKaisha, priority 2005, dated 2012)
# Where two headings read alike, the source gives them in different places.
# How the values were obtained:
# [1] = system: mouse spleen cells; assay: Proliferation inhibition assay for mouse spleen cells; assay type: cell-based; conditions: 72 h, 3 days, Alamar Blue
# Method in brief: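 C57BL/6N female mouse spleen cells (2×10^6 cells/mL) stimulated with Con A (3 μg/mL), LPS (100 μg/mL) or anti-mouse IgM (100 μg/mL) alongside serially diluted compounds, 3 days at 37° C, 5% CO2. Alamar Blue added for a further day; fluorescence read at ex 530/em 590 nm.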
# [2] = system: collagen-induced arthritis; assay: Collagen-induced arthritis inhibitory action; assay type: in vivo, mouse; conditions: DBA1 mice
# Description: Bovine type II collagen suspended in Freund's complete adjuvant was intradermally administered to the base of tail of DBA1 male mice (7 weeks old, purchased from Charles River Laboratories Japan Inc.) on day 1 and day 21. Then, from day 28 when 50% of the mice developed arthritis, the test substances suspended in 0.5% hydroxypropylcellulose (HPC) were orally administered on consecutive days. Here, the efficacy was evaluated by scoring the arthritis. Specifically, for each paw, the degree of arthritis was evaluated according to: no symptoms: 0; redness or swelling of one joint: 1; redness or swelling for two or more joints: 2; redness or swelling over the entire paw: 3; and maximum redness or swelling over the entire paw: 4.
# [3] = system: Rabbit synoviocytes HIG-82; assay: Inhibition assay for proliferation of rabbit synoviocyte; assay type: cell-based; conditions: Oryctolagus cuniculus, 72 h; HIG-82, 3 days, Alamar Blue
# [4] = system: allogeneic mixed lymphocyte reaction; assay: Allogeneic mixed lymphocyte reaction; assay type: cell-based, mouse; conditions: Mus musculus, Lymphocyte; C57BL/6N spleen stimulator cells, BALB/c lymph node responder cells, 86 hours, BrdU
# Method in brief: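 Stimulators were C57BL/6N female spleen cells and responders BALB/c female peripheral lymph node mononuclear cells (mice 8-10 weeks old). Cells suspended at 2×10^6 cells/mL in RPMI 1640 with 10% FBS and antibiotics.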
# [5] = system: Daudi cells; assay: Proliferation inhibitory activity on hematologic neoplasm cells, Daudi; assay type: cell-based; conditions: Homo sapiens, Daudi, 72 h; 3 days, Alamar Blue
# [6] = system: Jurkat cells; assay: Proliferation inhibitory activity on hematologic neoplasm cells, Jurkat; assay type: cell-based; conditions: Homo sapiens, Jurkat, 72 h; 3 days, Alamar Blue
# [7] = system: HL 60 cells; assay: Proliferation inhibitory activity on hematologic neoplasm cells, HL60; assay type: cell-based; conditions: Homo sapiens, HL-60, 72 h; 3 days, Alamar Blue
# [8] = system: THP-1 cells; assay: Proliferation inhibitory activity on hematologic neoplasm cells, THP-1; assay type: cell-based; conditions: Homo sapiens, THP-1, 72 h; 3 days, Alamar Blue
# [9] = system: U 937 cells; assay: Proliferation inhibitory activity on hematologic neoplasm cells, U937; assay type: cell-based; conditions: Homo sapiens, U-937, 72 h; 3 days, Alamar Blue
# [10] = system: fulminant hepatitis; assay: Fulminant hepatitis model (galactosamine and LPS); assay type: in vivo, mouse; conditions: BALB/c mice, galactosamine 800 mg/kg and LPS 110 μg/kg i.p.
# Description: BALB/c male mice (7 weeks old, purchased from Charles River Laboratories Japan Inc.) were used in the experiment. After having orally administered the test substances suspended in 5% HPC, galactosamine (800 mg/kg) and LPS (110 μg/kg) were intraperitoneally administered. Then, survival rates at 72 hours after administration were obtained.
# [11] = Toxicologic test for single oral administration; conditions: rat, in vivo, po, 1200 mg/kg
# [12] = system: Salmonella typhimurium TA98, TA100, TA1535, TA1537 and Escherichia coli WP2uvrA; assay: Ames test; assay type: cell-based; conditions: preincubation method, with or without S-9, up to 5000 μg/flat plate
# Description: Using 5 strains of Salmonella typhimurium TA98, TA100, TA1535, TA1537 and Escherichia coli WP2uvrA, the test substances (Compound 4, Compound 19, Compound 22 and Compound 24) were tested for their mutagenesis according to a preincubation method.
structure (smiles),measurement,setting,value
"FC(F)c1nc2ccccc2n1-c1nc(N2CCOCC2)nc(N2CCOCC2)n1 [Compound 4, 2-(2-Difluoromethylbenzimidazol-1-yl)-4,6-dimorpholino-1,3,5-triazine]",IC50,"[1]; LPS 100 μg/mL, read-out: Inhibition of LPS response",1 to 100 nM
same,IC50,"[1]; anti-mouse IgM antibody 100 μg/mL, read-out: Inhibition of Anti-IgM antibody response",1 to 100 nM
same,IC50,"[1]; concanavalin A 3 μg/mL, read-out: Inhibition of Con A response",1 to 100 nM
same,"arthritis score, difference versus control group","[2]; 50 mg/kg oral, after day 44 (conditions exacerbated after day 40)",no significant difference was recognized in comparison with the control group
same,"arthritis score, efficacy versus control group","[2]; 50 or 100 mg/kg oral, after day 30, Dunnett's test P<0.05",a statistically significant efficacy was recognized
same,progression of collagen-induced arthritis (arthritis score),[2]; oral on consecutive days from day 28,inhibited the progression of the collagen-induced arthritis in a dose-dependent manner
same,IC50,[3],953 nM
same,IC50,[4],218 nM
same,IC50,[5],105 nM
same,IC50,[6],1950 nM
same,IC50,[7],1120 nM
same,IC50,[8],511 nM
same,IC50,[9],3240 nM
same,Survival Rate after 72 Hours,[10]; 50 mg/kg oral,60%
same,Survival Rate after 72 Hours,[10]; 100 mg/kg oral,83%
same,death after single oral dose,[11],no examples of death were recognized
same,mutagenesis (colony number of reverse mutation),[12],negative
